Experimental findings from patent US9163020B2, “Azaindole compounds, synthesis thereof, and methods of using the same” (Global Alliance for TB Drug Development, priority 2013, dated 2015) are described below.

In general, MBC refers to the lowest tested concentration that kills the bacteria rather than only halting them. The AUC(0-t) is the area under the concentration-time curve up to a stated or last time point. Low values mean less exposure, high ones more exposure. One may read the Vd as a proportionality between amount in the body and measured concentration, not a real space. The clearance is the rate of elimination divided by the concentration. High values mean efficient removal, low ones inefficient removal. Usually half-life stands for the time in which the quantity being followed falls by half. High values mean slow loss, low ones fast loss. The term AUC(0-inf) denotes the area under the concentration-time curve extrapolated to infinity. Low values mean low exposure, high ones high exposure. Usually Cmax stands for the highest concentration seen after dosing. As a reminder, the Tmax is the time from dosing to the highest level.

Values after ≈ are worked out from the molar mass of the structure shown. Where two headings read alike, the source gives them in different places.

Series [1] concerns Mycobacterium tuberculosis (Mtb) H37Rv ATCC 27294. Nature of the series: microbe, parasite or virus in culture. The series is classed as cell-based. As to conditions: Mycobacterium tuberculosis, read-out: Mtb MIC.
Series [2] has as its system Mycobacterium tuberculosis (Mtb) H37Rv. Nature of the series: Mtb minimal bactericidal concentration (MBC), plating from MIC plates. As to conditions: Table 4, read-out: Mtb MBC. The series is classed as cell-based. On the procedure: Aliquots from sample wells (MIC and higher) from the MIC plates were diluted 1:10 and plated on 7H10 agar plates. Plates were incubated at 37° C. for 3-4 weeks, CFU was enumerated.

The conditions of series [3]: infected BALB/c mice, acute efficacy, +ABT.
The format of series [4] is in vitro ADME. Particulars: pH 7.4. On the procedure: 1 μM compound was incubated with 1 mg/mL of microsomes (Pooled HLM/MLM with 20 mg/ml protein cone.) at 37° C. in 166 μL of buffer (100 mM phosphate buffer, pH-7.4) containing 2 mM NADPH solution. […] The quench plate was centrifuged at 4000 rpm for 15 min. 30 μL of supernatant was diluted to 300 μL with 50% acetonitrile in water and substrate depletion was analyzed using LC-MS/MS.

The nature of another series: in vivo. As to conditions: Wistar, rat, in vivo. On the procedure: PK of azaindoles compounds was performed in mice (healthy and infected) and rats. Mice were pretreated with 100 mg/kg ABT two hours prior to the compound administration. PK data from healthy mice was used to design the dosing regimen for the efficacy study while, information from infected mice was used for the PK-PD analysis.
All oral administration was performed as suspensions in 0.5% HPMC, and 0.1% Tween 80. […] All blood samples were collected via sapheneous vein into Microvette CB300® (Starstedt, Germany) tubes coated with Lithium-Heparin, and plasma was prepared from the collected blood by centrifugation.
One mg/mL stock solution of each compound was prepared in Dimethylsulfoxide (DMSO) and diluted two-fold with acetonitrile. A sixteen point calibration curve was utilized for each analyte, and the standard curves ranged from 0.001 to 40 μg/mL. Plasma/BAL samples were precipitated by adding chilled acetonitrile (1:10 v/v) containing carbamazepine as internal standard (250 ng/mL). Samples were vortexed, and centrifuged at 4000 rpm for 30 min at 10° C. The resulting supernatant was mixed with mobile phase (50% acetonitrile in water with 0.1% formic acid). […] of sample was injected on to a liquid chromatographic system (Waters-ACQUTY UPLC) coupled to triple quadrupole mass spectrometer (Waters-ACQUTY-TQD; MS/MS). Samples were acquired in positive ion mode and detected by multiple reaction monitoring (MRM). Concentrations of the analyte were determined from a standard curve obtained by plotting known concentrations of the analyte against peak area ratios (analyte/internal standard peak response).
PK analysis of the plasma concentration-time relationships were performed with WinNonlin Phoenix Software (version 6.2; Pharsight, USA). […] The maximum concentration of drug in plasma (Cmax), time to Cmax (Tmax), elimination half-life (t1/2), and AUC from time zero to infinity (AUC0-∞) were estimated. […] Minimum of three sample points in the terminal slope were used to estimate to calculate half-life.

A further series in a line: in vitro. The series is classed as in vitro ADME. Particulars: pH 7.4; mouse microsomes; read-out: Mo micrsomal Clint. On the procedure: 1 μM compound was incubated with 1 mg/mL of microsomes (Pooled HLM/MLM with 20 mg/ml protein cone.) at 37° C. in 166 μL of buffer (100 mM phosphate buffer, pH-7.4) containing 2 mM NADPH solution. 20 μL of incubation mix was quenched with 4 volumes chilled acetonitrile at different time points i.e. 0, 2, 5, 10, 20 and 30 min in a fresh 96 well plate. The quench plate was centrifuged at 4000 rpm for 15 min. 30 μL of supernatant was diluted to 300 μL with 50% acetonitrile in water and substrate depletion was analyzed using LC-MS/MS.

`COc1ncnc(Cn2cc(C(=O)NCCF)c3ncccc32)c1C` [Compound 3, N-(2-fluoroethyl)-1-((6-methoxy-5-methylpyrimidin-4-yl)methyl)-1H-pyrrolo[3,2-b]pyridine-3-carboxamide]: the MIC in series [1] (Table 1) was determined as 1.56 µM (≈ 0.536 µg/mL). For the same compound, the MIC in series [1] (Table 4) was 1.56 to 3.12 µM (≈ 0.536 to 1.07 µg/mL). For the same compound, in series [2], the MBC lay within 1.56 to 3.12 µM (≈ 0.536 to 1.07 µg/mL). Further, in series [3] (multiple oral doses 50 mg/kg), the “% T > MIC” value came to 58% and the “% fT > MIC” value worked out at 23%. In series [3] (multiple oral doses 100 mg/kg), the “% T > MIC” value is recorded as 66% and the “% fT > MIC” value came to 41%. Also, the “Human CLpred microsomes (% LBF)” value in series [4] was 10.4 % LBF. In “in vivo” (iv, 0.5 mg/kg), this compound came in with an AUC(0-t) of 1.6 ± 0.29 µM·h, a C0h of 1.76 ± 0.42 µM, a Vd of 1.05 ± 0.28 L/kg and a clearance of 15.5 ± 3.21 mL/min/kg. Also, the half-life in “in vivo” (iv, 0.5 mg/kg) is 2.22 ± 2.51 h. Besides, in the series “in vivo” (po, 30 mg/kg), the AUC(0-inf) was determined as 101 µM·h, the highest concentration (Cmax) was 15 µM, the F is reported as 96% and the Tmax came to 2 h. In addition, in “in vivo” (po, 30 mg/kg), the half-life was 2.01 h. The microsomal CLint in “in vitro” came out at 104 µL/min/mg.
